Experimental data published in patent US20060263781A1, “Regulation of cell surface proteins” (priority 2003, published 2006).

Assays:
[1] = tested on: Tm5a and Tm5b; assay: Western blot (immunoblot) of tropomyosin isoforms in T84 cells; type: cell-based, human; details: 24 hours exposure, 2 μM, Western blot band density
Description: (§1) The sequence of the antisense and nonsense phosphorothioated oligonucleotides to Tm5a and Tm5b were 5′-CAC CGC CUC CAG CGA GCT (SEQ ID NO:14) and 5′-GCT CCA GCC ACG CCG ACT (SEQ ID NO:15) respectively. These were designed from the exon 1b sequence of the human αTMfast gene (Novy et al., 1993, Cell Motility & the Cytoskeleton 25, 267-281). T84 cell monolayers were grown to confluence on coverslips, in glass chamber slides or 24 well plates. The oligonucleotides were applied at a concentration of 2 μM with Lipofectin Reagent at 10 μg/ml according to the manufacturers instructions. The T84 cell monolayers were then incubated with the oligonucleotide for 24 hours at 37° C. in 5% CO2 after which time they were used for experiments that required oligonucleotide pretreatment.
Proteins were extracted from T84 cells using the method of Wessel and Flugge (Wessel and Flugge, 1984). Western blot was performed as described (Percival et al., 2000, Cell Motility & the Cytoskeleton 47, 189-208). […] Bound antibody was detected using HRP-conjugated goat anti-rabbit or goat anti-mouse IgG. The bands were detected using Western Lightening™ chemiluminescence reagent and exposure to x-ray film.
Protein expression was measured as the density of protein bands on Western blot autoradiographs using the computer program Molecular Analyst (Version 1.5, Bio Rad Laboratories, Calif., U.S.A.). […]

[2] = tested on: tropomyosin isoforms; assay: Immunofluorescence localisation of tropomyosin isoforms in T84 cells after treatment; type: cell-based, human; details: for effect on polarised distribution of αf9d staining: T84 cell monolayers, 2 μM oligonucleotide for 24 hours
Description: (§2) Cells were washed in 2% foetal bovine serum (FBS) in phosphate buffered saline (PBS) then fixed with 4% paraformaldehyde. They were permeabilised with 100% methanol, chilled to −80° C., for 20 minutes. Cells were incubated at room temperature with primary and secondary antibodies for 1 hour with washes performed with 2% FBS in PBS 3 times for 10 minutes after each incubation. Coverslips were mounted onto the slides with the anti-fade reagent DABCO.
(§3) Fluorescence was examined with a confocal laser scanning microscope (Leica Microsystems, Wetzler, Germany) using a 63× oil emersion objective. The distribution of fluorophores was measured by scanning at 488 nm for FITC and 568 nm for rhodamine using 8 line averages to eliminate noise. Images were taken in the vertical (xz) and horizontal (xy) plane. Images in the horizontal plane were constructed by overlaying sections taken at 1 μm steps from the apical to the basal region of the cells.
(§4) Epithelial cell monolayers were trypsinalised using trypsin/EDTA and centrifuged to form a cell pellet. The cells were then resuspended in medium containing either 1 μM jasplakinolide, 20 μM cytochalasin D or 33 μM nocodazole and seeded into poly-d-lysine and collagen coated glass chamber slides. The developing monolayers were then fixed and stained at 10 minutes after seeding. The effect of nocodazole on microtubules was confirmed by staining with antibodies to β tubulin and comparing with untreated cells. Mature T84 cell monolayers were treated with medium containing 20μM cytochalasin D for 3 hours then fixed and stained. Immunofluorescence analysis was then performed as described above.
as §1, with “5′-[…]” for “5′-CAC CGC CUC CAG CGA GCT”, “5′-[…]” for “5′-GCT CCA GCC ACG CCG ACT”

[3] = tested on: T84 cell monolayers; assay: MQAE chloride efflux assay; type: cell-based, human; details: for cumulative chloride efflux at 15 minutes, percentage increase in fluorescence normalised to the nonsense group: 2 μM oligonucleotide 24 hours, 10 μM forskolin, mean±1 SD; for cumulative chloride efflux at 15 minutes, percentage increase in fluorescence normalised to the control group: nocodazole 33 μM for 3 hours, mean±SD
Description: T84 cell monolayers, cultured on 24 or 96 well plates were incubated in medium containing 10 mM MQAE for 16 hours. The monolayers were then washed 3 times in chloride buffer (2.4 mM Na2HPO4, 0.6 mM NaH2PO4, 1 mM K2SO4, 1 mM MgSO4, 3.4 mM KCl, 124.6 mM NaCl, 1 mM CaCl2, 10 mM glucose and 10 mM HEPES ). T84 cell monolayers were stimulated with forskolin by incubating with chloride buffer containing 10 μM forskolin for 10 minutes, after which the chloride buffer was removed and replaced with chloride free buffer (2.4 mM Na2HPO4, 0.6 mM NaH2PO4, 1 mM K2SO4, 1 mM MgSO4, 3.4 mM KNO3, 1 mM Ca(NO3)2, 124.6 mM NaNO3, 10 mM glucose and 10 mM HEPES) containing 10 μM forskolin. Repetitive fluorescence measurements were initiated immediately using a fluorescence plate reader (excitation, λ-360 nm; emission, λ-460 nm). Measurements were performed every 30 to 60 seconds for 15 minutes.
Chloride efflux was measured as the percentage increase in fluorescence between baseline and the specified time point. The percentage increase in fluorescence was normalised within experiments to the mean percentage increase in fluorescence in the control group in that experiment. To determine the effects of treatments, the normalised percentage increase in fluorescence was compared between groups. Two group comparisons were made using the Student t test.
(§5) Cultured T84 colon cancer cell monolayers grown in collagen coated 24 well plates or on plastic coverslips were used as a model of the gastrointestinal epithelium. Incubation of monolayers inoculated with EPEC ([…]) for 6-9 hours was used to model EPEC infection and was compared with HB101, a non-pathogenic control. Antisense oligonucleotides were used to reduce tropomyosin 5a and 5b expression. An immuno-colourimetric assay was used to assess CFTR surface expression and intra-cellular MQAE fluorescence was used to assess chloride efflux.

[4] = tested on: CFTR; assay: Enzyme linked surface CFTR assay in T84 cell monolayers; type: cell-based, human; details: for CFTR surface expression, absorbance at 655 nm normalised to the nonsense treated group: 2 μM oligonucleotide for 24 hours, mean±1 SD; for CFTR surface expression, absorbance at 655 nm normalised to the control group: forskolin stimulated T84 cell monolayers, 33 μM nocodazole for 3 hours, mean±SD
Description: T84 cell monolayers cultured on collagen coated glass coverslips were incubated in either chloride buffer with 10 μM forskolin or chloride buffer only for 30 minutes at 37° C. in 5% CO2 then fixed with 4% paraformaldehyde for 20 minutes at 4° C. The T84 cell monolayers were incubated for 1 hour firstly with CFTR (MA1-935) antibody (Walker et al., 1995) diluted 1:500 followed by HRP anti-mouse IgG diluted 1:1000. T84 cell monolayers were blocked prior to each incubation for 10 minutes in PBS containing 10% FBS and washed following each incubation 4 times in PBS. The coverslips were then placed into a clean 24 well plate and incubated for 30 minutes with 500 μl of 3′3′5′5′ Tetra methyl benzidine. The supernatant from each well was transferred to a cuvette and absorbance determined at 655 nm in a Beckman DU650 spectrophotometer. Absorbance was also determined at 655 nm for primary antibody negative controls and that amount was subtracted from the absorbance in primary antibody positive monolayers to determine their assay result.
The CFTR surface expression is reported as the absorbance measured at 655 nm, normalised to the mean absorbance for the control group within individual experiments. To determine the effects of treatment, normalised absorbance at 655 nm was compared between groups. Two group comparisons were made using the Student t test.
as §5

[5] = tested on: Tm5a and Tm5b; assay: Apical αf9d antibody staining pixel intensity by confocal microscopy in T84 cell monolayers; type: cell-based, human; details: 2 μM oligonucleotide for 24 hours, mean±1 SD
Description: as §2, §3
The pixel intensity of Tm antibody staining was measured on images obtained by confocal microscopy. Measurements were made across the apical region and across the central region of monolayers and averaged to obtain the mean pixel intensity for individual monolayers. […]

[6] = tested on: microtubules; assay: β tubulin staining to confirm effect on microtubules; type: cell-based, human; details: T84 cells, 33 μM nocodazole
Description: as §4, with “The effect of nocodazole on microtubules was confirmed by staining with antibodies to β tubulin and comparing with untreated cells.” left out

[7] = tested on: CFTR; details: cytochalasin D induced disruption of actin filaments; Prat et al., 1995; cited from earlier work

Which results are given for “5′-CAC CGC CUC CAG CGA GCT (antisense CACCGCCUCCAGCGAGCT; all phosphorothioate, sugars by position and methylation of C not given here) [Antisense phosphorothioated oligonucleotide to Tm5a and Tm5b, targeted to exon 1b of the TPM1 gene]”?
mean reduction in Tm5a and Tm5b levels relative to nonsense treatment [1]: 54±13%; effect on polarised distribution of αf9d staining [2]: eliminated the polarised distribution of αf9d staining; cumulative chloride efflux at 15 minutes, percentage increase in fluorescence normalised to the nonsense group [3]: 1.47±0.41; increase in CFTR surface expression, antisense compared with nonsense controls ([4]; T84 cell monolayers, 2 μM for 24 hours): 50%; CFTR surface expression, absorbance at 655 nm normalised to the nonsense treated group ([4]; T84 cell monolayers): 1.49±0.78; apical αf9d antibody staining pixel intensity [5]: 53.62±31.62

Which results are given for “5′-GCT CCA GCC ACG CCG ACT (GCTCCAGCCACGCCGACT; all phosphorothioate, sugars by position and methylation of C not given here) [Nonsense, Scrambled nonsense control oligonucleotide]”?
effect on polarised distribution of αf9d staining [2]: essentially no effect on the distribution of staining; cumulative chloride efflux at 15 minutes, percentage increase in fluorescence normalised to the nonsense group [3]: 1±0.36; CFTR surface expression, absorbance at 655 nm normalised to the nonsense treated group ([4]; T84 cell monolayers): 1±0.42; apical αf9d antibody staining pixel intensity [5]: 150.86±48.28

Which “distribution of 311 antibody staining 10 minutes post-seeding” value ([2]; T84 cells pretreated in suspension before seeding (jasplakinolide 1 μM, nocodazole 33 μM)) does the source give for `COC(=O)Nc1nc2ccc(C(=O)c3cccs3)cc2[nH]1` [Nocodazole, nocodazole] here?
The value was “enrichment at the apical surface”.

What about the “microtubular structure by β tubulin staining” value [6] of the same compound?
The value was “disrupted normal microtubular structure”.

What about the “cumulative chloride efflux at 15 minutes, percentage increase in fluorescence normalised to the control group” value [3] of the same compound?
The value was 1.01±0.43.

And the “cumulative chloride efflux at 15 minutes, percentage increase in fluorescence normalised to the control group” value ([3]; listed as nocodazole)?
Its value is “failed to elicit any significant change”.

What about the “CFTR surface expression, absorbance at 655 nm normalised to the control group” value [4] of the same compound?
The value was 0.92±0.25.

And the “CFTR surface expression, absorbance at 655 nm normalised to the control group” value ([4]; listed as nocodazole)?
The value was “failed to elicit any significant change”.

Which “effect on chloride currents through CFTR” value [7] does the source give for `C=C1[C@@H](C)[C@H]2[C@H](Cc3ccccc3)NC(=O)[C@]23[C@H](OC(C)=O)/C=C/[C@@](C)(O)C(=O)[C@@H](C)C/C=C/[C@H]3[C@@H]1O` [cytochalasin D] here?
Its value is “increase chloride currents through CFTR”.

And the “effect on polarised distribution of αf9d staining in established monolayers” value ([2]; mature T84 cell monolayers, 20 μM cytochalasin D for 3 hours)?
Its value is “eliminated the polarised distribution of αf9d staining”.
